Assay results from patent US20180221463A1, “Modified NK Cells and Uses Thereof” (priority 2017, published 2018).

Key:
SMAD3 [1] = target: T1, SMAD3 (Homo sapiens, UniProt P84022); test: Blockade of Smad3 in NK-92 cells under TGF-β1: E4BP4 and IFN-γ levels; format: cell-based; details: high TGF-β1 (5 ng/ml), SIS3 5 μM
T1 construct: NK-92 cells were pretreated with SIS3 at various concentrations for 2 hours; endogenous in cells; host or cells: NK-92 (human NK cell line)
Protocol: To reveal the regulatory role of SMAD3 and E4BP4 in the production of IFN-γ in NK-92 cells, a specific inhibitor of SMAD3 known as SIS3 (Sigma) was used in this study. Briefly, NK-92 cells were pretreated with SIS3 at various concentrations for 2 hours. The cells were then treated with TGF-β1 at the final concentration of 5 ng/ml for 45 min and harvested for detection of the phosphorylation level of SMAD3 with western blot. The dosage of SIS3 that induced the maximum effect of phosphorylation inhibition of SMAD3 was determined as the optimal dosage of SIS3 used in further experiment. NK-92 cells were then pretreated with or without SIS3 at the determined concentration for 2 hours followed by stimulation with TGF-β1 at the final concentration of 5 ng/ml for 12 hours. The cells were harvested to detect the level of E4BP4 and IFN-γ.

SMAD3 [2] = test: SMAD3 knockdown in NK-92 cells, real-time PCR and western blot; format: cell-based, human
Protocol: NK-92 cells were transduced with rLV-hSMAD3 and selected with puromycin (InvivoGen). Briefly, NK-92 cells were seeded in a 24-well plate at a density of 1×10^6/ml and mixed with ploybrene (Santa Cruz) at final concentration of 5 ug/ml and rLV-hSmad3 at MOI (multiplicity of infection) equal to 50 overnight at 37° C. The transduced cells were then expanded in complete medium and selected with puromycin at a final concentration of 2 ug/ml. The expression level of SMAD3 in the puromycin resistant clone was determined by real-time PCR with corresponding primers (Table 2) and Western blot analysis with rabbit anti human SMAD3 antibody (Abcam) respectively.
Total RNA from cells was isolated using the PureLink™ RNA Mini kit (Life Technologies) according to the manufacturer's instruction. The reverse transcription reaction was conducted with C1000 thermal cycler. The cDNA was then diluted with 40 ul RNase-free water and used as the template in real-time polymerase chain reaction.

T1 sequence (P84022 whole entry): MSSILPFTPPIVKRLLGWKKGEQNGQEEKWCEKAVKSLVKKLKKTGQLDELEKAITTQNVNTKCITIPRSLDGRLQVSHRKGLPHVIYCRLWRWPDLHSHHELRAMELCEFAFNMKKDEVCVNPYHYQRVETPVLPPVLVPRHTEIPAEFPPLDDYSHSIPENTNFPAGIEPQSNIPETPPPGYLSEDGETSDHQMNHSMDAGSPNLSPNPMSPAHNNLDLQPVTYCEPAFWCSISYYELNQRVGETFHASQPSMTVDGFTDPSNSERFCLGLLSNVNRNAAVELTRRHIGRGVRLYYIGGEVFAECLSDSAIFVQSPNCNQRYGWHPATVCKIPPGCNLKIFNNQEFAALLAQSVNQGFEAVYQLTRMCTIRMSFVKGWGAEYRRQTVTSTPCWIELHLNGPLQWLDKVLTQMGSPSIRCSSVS

Compound	expressions of E4BP4 mRNA and protein (SMAD3 [1])	production of IFN-γ (SMAD3 [1])	mRNA expression of SMAD3 (SMAD3 [2]; real-time PCR)	decrease in SMAD3 protein (SMAD3 [2]; western blot)
COc1cc2c(cc1OC)CN(C(=O)/C=C/c1c(-c3ccccc3)n(C)c3ncccc13)CC2 [SIS3]	markedly increase	markedly increase	–	–
shRNA-hSmad3: shRNA specifically against human SMAD3 mRNA, sequence GGAGAAATGGTGCGAGAAG (Table 3), delivered by lentivirus (shRNA hairpin; lentiviral delivery)	–	–	largely down-regulated	more than 70%
